Measured values published in patent US20120122854A1, “Carbocyclic Fused Cyclic Amines” (priority 2005, published 2012).

Biological target: T1, human factor Xa (Homo sapiens, UniProt P00742)
T1 construct: purchased Enzyme Research Laboratories
Experiment: Factor Xa chromogenic peptide substrate (S-2222) assay
Type: biochemical
Details: human factor Xa 3 nM, chromogenic substrate S-2222, pH 7.8, room temperature; apparent Ki from IC50 by Cheng-Prusoff
Experimental: Factor Xa activity was measured spectrophotometrically in microtiter plates in a final volume of 150 μl using the following conditions: Inhibition of human factor Xa (Enzyme Research Laboratories) was tested at an enzyme concentration of 3 nM using the chromogenic substrate S-2222 (Chromogenix AB, Mölndal, Sweden) at […]. The reaction kinetics of the enzyme and the substrate were linear with both time and the enzyme concentration. The inhibitors were dissolved in DMSO and tested at various concentrations up to 100 μM. The inhibitors were diluted using HNPT buffer consisting of HEPES100 mM, NaCl 140 mM, PEG 6000 0.1% and Tween 80 0.02%, pH 7.8. The cleavage of S-2222 by human factor Xa was followed at 405 nm for 5 minutes at room temperature. The velocity of the reaction was determined by the autoreader from the slope of the linear regression fit to 7 time points (1 minute). The initial velocity for each inhibitor concentration was determined by the slope of at least 4 time points in the linear phase by a linear regression fit […]. Apparent dissociation constants Ki were calculated according to Cheng and Prusoff [Cheng, Y. C.; Prusoff, W. H. Relationship between the inhibition constant (Ki) and the concentration of the inhibitor that causes 50 percent inhibition (IC50) of an enzyme reaction. Biochem. Pharmacol. 1973, 22, 3099-3108.] based on the IC50 and the respective Km, determined previously (Ki=IC50/(1+S/Km)). The Km for the substrate used was determined under the conditions of the test with at least 5 substrate concentrations ranging from 0.5 to 15 times Km. [Lottenberg R, Hall J A, Blinder M, Binder E P, Jackson C M., The action of thrombin on peptide p-nitroanilide substrates. Substrate selectivity and examination of hydrolysis under different reaction conditions. Biochim Biophys Acta. 1983 Feb. 15; 742(3):539-57]. According to Eadie [Eadie G. S. The inhibition of cholinesterase by physostigmine and prostigmine. J. Biol. Chem. 1942, 146, 85-93.], the Km for S-2222 amounted to 613 μM.

T1 sequence (P00742 235-488 limits assumed): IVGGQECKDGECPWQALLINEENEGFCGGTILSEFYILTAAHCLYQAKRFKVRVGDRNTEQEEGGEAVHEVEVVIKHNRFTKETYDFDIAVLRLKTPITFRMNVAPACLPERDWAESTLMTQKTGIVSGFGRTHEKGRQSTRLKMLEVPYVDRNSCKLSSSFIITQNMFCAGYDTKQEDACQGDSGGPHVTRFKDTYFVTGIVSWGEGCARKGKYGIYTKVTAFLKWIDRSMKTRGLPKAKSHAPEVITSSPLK
T1 sequence (P00742 41-179 partner limits assumed): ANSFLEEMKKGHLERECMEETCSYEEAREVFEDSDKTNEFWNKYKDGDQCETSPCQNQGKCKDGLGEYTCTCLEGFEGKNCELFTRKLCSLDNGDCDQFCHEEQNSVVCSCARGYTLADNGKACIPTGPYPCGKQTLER

Row | SMILES | Ki [nM]
1 | O=C(Nc1ccc(-n2ccccc2=O)cc1)C1c2ccccc2CN1C(=O)Nc1ccc(Cl)cc1 (stereo in doubt) [Example 4, (S)-1,3-Dihydro-isoindole-1,2-dicarboxylic acid 2-[(4-chloro-phenyl)-amide]1-{[4-(2-oxo-2H-pyridin-1-yl)-phenyl]-amide}] | 2
2 | O=C(Nc1ccc(-n2ccccc2=O)cc1F)[C@H]1Cc2ccccc2CN1C(=O)Nc1ccc(Cl)cc1 [Example 25, (R)-3,4-Dihydro-1H-isoquinoline-2,3-dicarboxylic acid 2-[(4-chloro-phenyl)-amide]3-{[2-fluoro-4-(2-oxo-2H-pyridin-1-yl)-phenyl]-amide}] | 2
3 | O=C(NCC1CN(C(=O)Nc2ccc(-n3ccccc3=O)cc2F)c2cccc(Cl)c21)c1ccc(Cl)s1 (stereo not drawn) [Example 44, 4-Chloro-3-{[(5-chloro-thiophene-2-carbonyl)-amino]-methyl}-2,3-dihydro-indole-1-carboxylic acid [2-fluoro-4-(2-oxo-2H-pyridin-1-yl)-phenyl]-amide] | 2
